For 1 compound, Kd and Vmax results are on record in PMC9673926, “Nucleotide binding as an allosteric regulatory mechanism for Akkermansia muciniphila β-N-acetylhexosaminidase Am2136” (Gut Microbes, 2022).

Experiment [1] addresses T1, Am2136 R592A (Akkermansia muciniphila, UniProt B2UPR7, R592A).
T1 sequence (B2UPR7 20-756 R592A): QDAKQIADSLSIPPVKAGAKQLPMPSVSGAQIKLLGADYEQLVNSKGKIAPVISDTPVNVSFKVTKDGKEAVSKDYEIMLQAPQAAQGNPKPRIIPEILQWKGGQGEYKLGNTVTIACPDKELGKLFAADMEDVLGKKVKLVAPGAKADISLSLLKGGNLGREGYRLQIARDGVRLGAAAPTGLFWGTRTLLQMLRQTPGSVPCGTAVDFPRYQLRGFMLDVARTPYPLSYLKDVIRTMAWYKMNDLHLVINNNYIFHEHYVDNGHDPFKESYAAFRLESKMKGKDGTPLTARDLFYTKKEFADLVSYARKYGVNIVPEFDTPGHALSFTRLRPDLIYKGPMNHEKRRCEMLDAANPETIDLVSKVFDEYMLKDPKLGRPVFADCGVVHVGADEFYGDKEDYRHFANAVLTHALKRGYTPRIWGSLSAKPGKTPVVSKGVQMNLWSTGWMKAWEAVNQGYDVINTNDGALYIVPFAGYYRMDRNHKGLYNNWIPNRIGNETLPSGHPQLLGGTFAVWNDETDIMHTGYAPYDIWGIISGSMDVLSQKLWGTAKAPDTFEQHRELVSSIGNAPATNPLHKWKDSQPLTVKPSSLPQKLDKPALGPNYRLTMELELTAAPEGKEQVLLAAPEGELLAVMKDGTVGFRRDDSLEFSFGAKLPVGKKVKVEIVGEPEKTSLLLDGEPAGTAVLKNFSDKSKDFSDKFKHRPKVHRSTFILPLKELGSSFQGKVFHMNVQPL
The experiment is described as follows: Nucleotide binding affinity by intrinsic fluorescence, mutant. Details: The coding region (residue Q20-L756) of Am2136 without signal peptide was based on UniProt; 6XHis (N); made in house; host or cells: E. coli BL21 (DE3). Here is the method:
The nucleotide binding ability was determined on Fluorescence Spectrometer Duetta (HORIBA) by measuring the change of peak intensity. The fluorescence was excited at 286 nm and emitted at 336 nm. And the measurement was processed under 400 V voltage with 2.5 nm excitation slit and 5 nm emission slit. The 120 μL reaction mixture contains 0–550 μM nucleotide, 5 μM proteins, 25 mM Tris pH 8.0 and 150 mM NaCl. The sample was incubated at 4°C for 5 min before testing.

The target of experiment [2] is T2, Am2136 Y550A (Akkermansia muciniphila, UniProt B2UPR7, Y550A).
T2 sequence (B2UPR7 20-756 Y550A): T1 sequence (B2UPR7 20-756 R592A) with Y531A, A573R
The experiment can be described thus: GDP regulated enzyme activity assay, mutant. Particulars: 1 mM GDP, substrate pNP-β-GlcNAc.

Experiment [3] concerns the target T3, Am2136 Y327F+Y331F (Akkermansia muciniphila, UniProt B2UPR7, Y327F/Y331F).
T3 sequence (B2UPR7 20-756 Y327F/Y331F): T1 sequence (B2UPR7 20-756 R592A) with Y308F, Y312F, A573R
The experiment can be described thus: GDP regulated enzyme activity assay, mutant. The conditions noted are these: 1 mM GDP, substrate pNP-β-GlcNAc.

Residue numbers refer to the chain shown, from its start.

In general, Kd refers to the equilibrium constant for the complex coming apart. High values mean lower affinity, low ones higher affinity. The Vmax is the rate approached at saturating substrate. Compound `Nc1nc2c(ncn2[C@@H]2O[C@H](COP(=O)(O)OP(=O)(O)O)[C@@H](O)[C@H]2O)c(=O)[nH]1` [GDP] yielded an equilibrium dissociation constant (Kd) in experiment [1] of 120 ± 5.82 µM. The maximum rate (Vmax) in experiment [2] amounted to 463 ± 7 µmol/min; in experiment [3], 473 ± 6 µmol/min.
